Assays:
[1] = biological target: Epidermal growth factor receptor (Homo sapiens) (UniProt P00533); details: Compound concentration 100.0 nM
[2] = test system: Epidermal growth factor receptor (Homo sapiens), P00533 [G719C]; details: Compound concentration 100.0 nM
[3] = biological target: Ribosomal protein S6 kinase alpha-5 (Homo sapiens) (UniProt O75582); details: Compound concentration 100.0 nM
[4] = test system: Hepatocyte growth factor receptor (Homo sapiens), P08581 [Y1235D]; details: Compound concentration 100.0 nM
[5] = test system: Tyrosine-protein kinase ABL1 (Homo sapiens), P00519 [Y253F]; details: Compound concentration 100.0 nM
[6] = test system: Receptor-type tyrosine-protein kinase FLT3 (Homo sapiens), P36888 [D835H]; details: Compound concentration 100.0 nM
[7] = biological target: Cyclin-dependent kinase 3 (Homo sapiens) (UniProt Q00526); details: Compound concentration 100.0 nM
[8] = biological target: Mitogen-activated protein kinase kinase kinase 9 (Homo sapiens) (UniProt P80192); details: Compound concentration 100.0 nM
[9] = biological target: Homeodomain-interacting protein kinase 2 (Homo sapiens) (UniProt Q9H2X6); details: Compound concentration 100.0 nM
[10] = biological target: Serine/threonine-protein kinase 17B (Homo sapiens) (UniProt O94768); details: Compound concentration 100.0 nM
Serine/threonine-protein kinase 17B (Homo sapiens), sequence (O94768 whole entry): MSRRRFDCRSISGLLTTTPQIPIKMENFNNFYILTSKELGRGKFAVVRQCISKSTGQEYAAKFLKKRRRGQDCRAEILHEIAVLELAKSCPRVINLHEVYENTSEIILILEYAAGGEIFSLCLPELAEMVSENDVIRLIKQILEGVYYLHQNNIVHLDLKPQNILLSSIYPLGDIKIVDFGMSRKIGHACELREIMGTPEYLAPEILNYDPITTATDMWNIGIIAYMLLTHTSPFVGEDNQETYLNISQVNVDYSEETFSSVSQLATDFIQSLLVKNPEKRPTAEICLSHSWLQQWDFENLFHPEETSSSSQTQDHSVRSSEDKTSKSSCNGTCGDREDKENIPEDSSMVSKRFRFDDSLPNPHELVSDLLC

[11] = biological target: Cyclin-dependent kinase 11A (Homo sapiens) (UniProt Q9UQ88); details: Compound concentration 100.0 nM
Cyclin-dependent kinase 11A (Homo sapiens), sequence (Q9UQ88 whole entry): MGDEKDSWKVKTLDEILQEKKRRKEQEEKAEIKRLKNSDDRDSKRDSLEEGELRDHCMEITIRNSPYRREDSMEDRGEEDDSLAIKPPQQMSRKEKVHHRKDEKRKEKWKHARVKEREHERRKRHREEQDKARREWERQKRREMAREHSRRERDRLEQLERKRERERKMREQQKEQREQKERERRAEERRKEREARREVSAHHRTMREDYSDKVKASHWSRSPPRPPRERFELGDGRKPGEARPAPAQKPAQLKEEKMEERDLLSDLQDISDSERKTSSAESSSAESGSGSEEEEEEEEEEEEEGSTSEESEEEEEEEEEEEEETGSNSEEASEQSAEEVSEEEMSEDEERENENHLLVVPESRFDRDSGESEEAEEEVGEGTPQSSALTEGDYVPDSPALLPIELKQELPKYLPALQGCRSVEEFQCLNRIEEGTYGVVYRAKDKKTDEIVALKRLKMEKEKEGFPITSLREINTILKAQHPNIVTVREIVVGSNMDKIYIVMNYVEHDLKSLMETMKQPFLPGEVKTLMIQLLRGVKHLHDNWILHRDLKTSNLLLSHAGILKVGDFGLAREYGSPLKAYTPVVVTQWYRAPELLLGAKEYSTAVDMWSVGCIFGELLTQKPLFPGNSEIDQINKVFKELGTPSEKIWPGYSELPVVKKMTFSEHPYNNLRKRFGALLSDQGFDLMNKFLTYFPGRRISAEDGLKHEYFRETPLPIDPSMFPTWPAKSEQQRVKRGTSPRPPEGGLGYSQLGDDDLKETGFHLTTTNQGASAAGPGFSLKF

[12] = biological target: Mitogen-activated protein kinase kinase kinase 14 (Homo sapiens) (UniProt Q99558); details: Compound concentration 100.0 nM
[13] = biological target: Mitogen-activated protein kinase 6 (Homo sapiens) (UniProt Q16659); details: Compound concentration 100.0 nM
Mitogen-activated protein kinase 6 (Homo sapiens), sequence (Q16659 whole entry): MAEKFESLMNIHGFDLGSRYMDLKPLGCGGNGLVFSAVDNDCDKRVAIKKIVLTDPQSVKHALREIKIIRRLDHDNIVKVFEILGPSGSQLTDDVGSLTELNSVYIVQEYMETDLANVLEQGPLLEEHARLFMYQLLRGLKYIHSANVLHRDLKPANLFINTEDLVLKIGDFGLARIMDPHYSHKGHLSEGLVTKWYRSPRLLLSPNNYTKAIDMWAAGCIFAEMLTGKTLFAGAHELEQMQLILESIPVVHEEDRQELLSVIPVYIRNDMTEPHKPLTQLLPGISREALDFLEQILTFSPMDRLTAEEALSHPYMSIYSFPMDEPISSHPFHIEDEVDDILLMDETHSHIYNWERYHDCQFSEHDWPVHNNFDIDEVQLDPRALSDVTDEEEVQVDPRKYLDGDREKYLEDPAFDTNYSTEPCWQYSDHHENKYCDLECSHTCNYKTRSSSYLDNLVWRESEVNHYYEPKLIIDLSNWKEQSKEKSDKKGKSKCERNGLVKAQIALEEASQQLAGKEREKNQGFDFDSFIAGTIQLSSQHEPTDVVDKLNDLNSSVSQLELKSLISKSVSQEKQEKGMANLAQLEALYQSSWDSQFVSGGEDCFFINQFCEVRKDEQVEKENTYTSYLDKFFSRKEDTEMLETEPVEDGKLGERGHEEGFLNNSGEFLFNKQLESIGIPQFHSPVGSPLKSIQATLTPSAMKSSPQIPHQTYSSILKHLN

[14] = biological target: Focal adhesion kinase 1 (Homo sapiens) (UniProt Q05397); details: Compound concentration 100.0 nM
[15] = biological target: Atypical kinase COQ8B, mitochondrial (Homo sapiens) (UniProt Q96D53); details: Compound concentration 100.0 nM
[16] = biological target: Bone morphogenetic protein receptor type-1A (Homo sapiens) (UniProt P36894); details: Compound concentration 100.0 nM
[17] = biological target: T1, Muscarinic acetylcholine receptor M4 (Homo sapiens) (UniProt P08173); details: Compound concentration 10.0 uM
T1 sequence (whole entry): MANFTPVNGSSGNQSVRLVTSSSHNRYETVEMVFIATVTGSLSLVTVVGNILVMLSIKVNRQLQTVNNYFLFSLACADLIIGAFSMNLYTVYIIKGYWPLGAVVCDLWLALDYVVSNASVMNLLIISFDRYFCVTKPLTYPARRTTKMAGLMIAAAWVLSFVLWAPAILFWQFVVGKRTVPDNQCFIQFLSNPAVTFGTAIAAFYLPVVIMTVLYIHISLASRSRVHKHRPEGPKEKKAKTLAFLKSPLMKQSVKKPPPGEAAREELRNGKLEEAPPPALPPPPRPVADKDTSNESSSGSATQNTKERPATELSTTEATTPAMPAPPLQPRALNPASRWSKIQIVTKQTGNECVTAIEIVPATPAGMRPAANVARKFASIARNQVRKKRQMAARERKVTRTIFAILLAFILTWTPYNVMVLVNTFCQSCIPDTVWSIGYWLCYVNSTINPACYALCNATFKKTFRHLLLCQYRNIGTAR

[18] = biological target: Serine/threonine-protein kinase D3 (Homo sapiens) (UniProt O94806); details: Compound concentration 100.0 nM
[19] = biological target: Hepatocyte growth factor receptor (Homo sapiens) (UniProt P08581); details: Compound concentration 100.0 nM
[20] = biological target: Ribosomal protein S6 kinase alpha-6 (Homo sapiens) (UniProt Q9UK32); details: Compound concentration 100.0 nM
[21] = biological target: Tyrosine-protein kinase JAK1 (Homo sapiens) (UniProt P23458); details: Compound concentration 100.0 nM
[22] = biological target: Leukocyte tyrosine kinase receptor (Homo sapiens) (UniProt P29376); details: Compound concentration 100.0 nM
[23] = biological target: Casein kinase II subunit alpha (Homo sapiens) (UniProt P68400); details: Compound concentration 100.0 nM
[24] = biological target: Tyrosine-protein kinase Blk (Homo sapiens) (UniProt P51451); details: Compound concentration 100.0 nM
[25] = biological target: High affinity nerve growth factor receptor (Homo sapiens) (UniProt P04629); details: Compound concentration 100.0 nM
[26] = biological target: Insulin-like growth factor 1 receptor (Homo sapiens) (UniProt P08069); details: Compound concentration 100.0 nM
[27] = biological target: Serine/threonine-protein kinase Nek10 (Homo sapiens) (UniProt Q6ZWH5); details: Compound concentration 100.0 nM
[28] = test system: Proto-oncogene tyrosine-protein kinase receptor Ret (Homo sapiens), P07949 [V804L]; details: Compound concentration 100.0 nM
[29] = test system: Mast/stem cell growth factor receptor Kit (Homo sapiens), P10721 [V559D]; details: Compound concentration 100.0 nM
[30] = biological target: MAP kinase-activated protein kinase 2 (Homo sapiens) (UniProt P49137); details: Compound concentration 100.0 nM
[31] = biological target: Bone morphogenetic protein receptor type-2 (Homo sapiens) (UniProt Q13873); details: Compound concentration 100.0 nM
[32] = biological target: Serine/threonine-protein kinase MARK1 (Homo sapiens) (UniProt Q9P0L2); details: Compound concentration 100.0 nM
Serine/threonine-protein kinase MARK1 (Homo sapiens), sequence (Q9P0L2 whole entry, looked up): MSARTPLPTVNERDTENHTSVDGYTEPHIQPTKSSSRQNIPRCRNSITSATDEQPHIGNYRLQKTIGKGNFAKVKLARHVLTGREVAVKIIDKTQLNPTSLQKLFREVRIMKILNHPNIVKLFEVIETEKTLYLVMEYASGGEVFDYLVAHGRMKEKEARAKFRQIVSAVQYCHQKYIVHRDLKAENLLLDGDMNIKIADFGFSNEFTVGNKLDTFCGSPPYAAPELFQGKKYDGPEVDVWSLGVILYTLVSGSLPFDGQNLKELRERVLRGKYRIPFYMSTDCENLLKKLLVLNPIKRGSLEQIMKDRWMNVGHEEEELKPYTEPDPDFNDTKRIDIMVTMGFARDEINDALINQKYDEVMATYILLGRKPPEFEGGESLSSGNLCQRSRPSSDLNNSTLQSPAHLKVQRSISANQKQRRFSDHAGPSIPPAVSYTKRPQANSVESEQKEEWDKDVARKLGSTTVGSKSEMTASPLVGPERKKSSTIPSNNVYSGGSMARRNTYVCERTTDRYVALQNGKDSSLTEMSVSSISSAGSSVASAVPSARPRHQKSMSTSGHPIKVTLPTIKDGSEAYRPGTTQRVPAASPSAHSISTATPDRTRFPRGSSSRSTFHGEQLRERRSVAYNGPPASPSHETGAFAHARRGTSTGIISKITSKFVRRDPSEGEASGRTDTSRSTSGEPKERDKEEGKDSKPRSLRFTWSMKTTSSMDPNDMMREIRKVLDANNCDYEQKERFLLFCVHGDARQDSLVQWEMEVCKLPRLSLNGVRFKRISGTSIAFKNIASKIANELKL

[33] = biological target: 5-hydroxytryptamine receptor 7 (Homo sapiens, UniProt P34969); details: Compound concentration 10.0 uM
[34] = biological target: Activin receptor type-1 (Homo sapiens) (UniProt Q04771); details: Compound concentration 100.0 nM
[35] = biological target: Muscarinic acetylcholine receptor M3 (Homo sapiens) (UniProt P20309); details: Compound concentration 10.0 uM
[36] = biological target: Serine/threonine-protein kinase 32C (Homo sapiens) (UniProt Q86UX6); details: Compound concentration 100.0 nM
[37] = biological target: Casein kinase II subunit alpha' (Homo sapiens) (UniProt P19784); details: Compound concentration 100.0 nM
Casein kinase II subunit alpha' (Homo sapiens), sequence (P19784 whole entry, looked up): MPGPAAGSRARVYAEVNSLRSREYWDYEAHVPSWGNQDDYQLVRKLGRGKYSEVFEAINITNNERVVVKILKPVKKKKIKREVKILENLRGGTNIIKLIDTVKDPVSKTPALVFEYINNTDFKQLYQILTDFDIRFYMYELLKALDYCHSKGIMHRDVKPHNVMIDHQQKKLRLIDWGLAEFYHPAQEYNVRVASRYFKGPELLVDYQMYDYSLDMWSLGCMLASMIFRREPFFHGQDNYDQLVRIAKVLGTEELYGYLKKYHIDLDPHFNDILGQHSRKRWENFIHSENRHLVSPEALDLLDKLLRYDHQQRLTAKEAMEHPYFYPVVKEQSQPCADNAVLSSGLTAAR

[38] = biological target: Homeodomain-interacting protein kinase 3 (Homo sapiens) (UniProt Q9H422); details: Compound concentration 100.0 nM
Homeodomain-interacting protein kinase 3 (Homo sapiens), sequence (Q9H422 whole entry, looked up): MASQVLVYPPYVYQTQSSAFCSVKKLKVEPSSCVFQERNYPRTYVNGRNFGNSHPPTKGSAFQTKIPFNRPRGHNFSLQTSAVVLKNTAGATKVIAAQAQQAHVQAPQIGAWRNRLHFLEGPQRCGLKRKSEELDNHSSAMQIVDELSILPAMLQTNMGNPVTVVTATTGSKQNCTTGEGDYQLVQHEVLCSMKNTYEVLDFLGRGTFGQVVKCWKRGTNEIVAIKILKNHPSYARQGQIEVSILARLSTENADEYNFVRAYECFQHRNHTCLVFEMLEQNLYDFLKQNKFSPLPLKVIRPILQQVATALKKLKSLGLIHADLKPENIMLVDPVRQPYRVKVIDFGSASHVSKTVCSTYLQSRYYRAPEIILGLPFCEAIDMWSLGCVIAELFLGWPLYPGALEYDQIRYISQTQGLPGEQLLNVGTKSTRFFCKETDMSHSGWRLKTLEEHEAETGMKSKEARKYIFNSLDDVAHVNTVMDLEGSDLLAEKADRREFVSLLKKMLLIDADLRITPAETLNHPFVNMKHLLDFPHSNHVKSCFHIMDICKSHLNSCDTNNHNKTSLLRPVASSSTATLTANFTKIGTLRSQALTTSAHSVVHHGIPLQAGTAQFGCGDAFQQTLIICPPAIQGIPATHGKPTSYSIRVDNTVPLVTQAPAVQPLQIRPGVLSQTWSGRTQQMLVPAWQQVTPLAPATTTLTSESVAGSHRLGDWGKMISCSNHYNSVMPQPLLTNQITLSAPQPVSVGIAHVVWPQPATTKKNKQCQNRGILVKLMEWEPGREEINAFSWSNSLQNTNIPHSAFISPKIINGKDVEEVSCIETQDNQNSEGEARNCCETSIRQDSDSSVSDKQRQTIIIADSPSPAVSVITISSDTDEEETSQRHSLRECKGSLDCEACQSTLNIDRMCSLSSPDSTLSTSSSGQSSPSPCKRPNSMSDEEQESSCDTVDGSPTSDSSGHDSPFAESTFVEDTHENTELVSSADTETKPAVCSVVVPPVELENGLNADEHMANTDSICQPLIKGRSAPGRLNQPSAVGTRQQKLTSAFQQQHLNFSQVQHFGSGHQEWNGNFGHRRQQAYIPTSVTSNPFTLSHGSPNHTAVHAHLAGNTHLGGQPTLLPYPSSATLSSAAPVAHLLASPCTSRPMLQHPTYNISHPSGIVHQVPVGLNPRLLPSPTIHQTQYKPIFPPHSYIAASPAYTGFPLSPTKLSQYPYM

Ribosomal protein S6 kinase alpha-5 (Homo sapiens), sequence (O75582 whole entry, looked up): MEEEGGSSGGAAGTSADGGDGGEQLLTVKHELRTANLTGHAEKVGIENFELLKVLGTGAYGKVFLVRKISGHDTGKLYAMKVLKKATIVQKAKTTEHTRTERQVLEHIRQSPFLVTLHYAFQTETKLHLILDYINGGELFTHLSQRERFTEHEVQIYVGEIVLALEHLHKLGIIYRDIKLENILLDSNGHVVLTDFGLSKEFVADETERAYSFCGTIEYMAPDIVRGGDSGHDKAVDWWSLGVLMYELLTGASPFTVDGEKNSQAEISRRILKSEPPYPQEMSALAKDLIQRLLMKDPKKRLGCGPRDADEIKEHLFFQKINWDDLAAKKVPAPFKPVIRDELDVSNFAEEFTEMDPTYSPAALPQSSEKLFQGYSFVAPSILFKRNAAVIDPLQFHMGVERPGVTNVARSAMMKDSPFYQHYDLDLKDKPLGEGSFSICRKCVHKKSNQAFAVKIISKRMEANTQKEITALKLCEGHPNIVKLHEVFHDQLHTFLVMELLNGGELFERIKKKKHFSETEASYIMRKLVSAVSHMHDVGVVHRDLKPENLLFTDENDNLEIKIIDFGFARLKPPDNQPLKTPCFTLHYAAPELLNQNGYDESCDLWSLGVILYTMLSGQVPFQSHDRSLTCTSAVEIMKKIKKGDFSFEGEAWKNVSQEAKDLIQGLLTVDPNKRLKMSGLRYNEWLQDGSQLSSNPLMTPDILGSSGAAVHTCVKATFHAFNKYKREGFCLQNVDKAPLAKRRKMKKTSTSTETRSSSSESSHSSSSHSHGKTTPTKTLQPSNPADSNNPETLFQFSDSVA

Structure (SMILES)	residual activity [1]	residual activity [2]	residual activity [3]	residual activity [4]	residual activity [5]	residual activity [6]	residual activity [7]	residual activity [8]	residual activity [9]	residual activity [10]	residual activity [11]	residual activity [12]	residual activity [13]	residual activity [14]	residual activity [15]	residual activity [16]	inhibition [17]	residual activity [18]	residual activity [19]	residual activity [20]	further results
COCCOc1nc(-c2ccc(Cl)nc2)nc2c1CN(C(=O)c1ncn3ccccc13)CC2 [THPP-1]	88%	85%	100%	100%	93%	100%	100%	100%	100%	62%	100%	100%	100%	99%	100%	82%	2%	94%	100%	100%	residual activity [21]: 100%; residual activity [22]: 100%; residual activity [23]: 99%; residual activity [24]: 75%; residual activity [25]: 100%; residual activity [26]: 82%; residual activity [27]: 100%; residual activity [28]: 100%; residual activity [29]: 100%; residual activity [30]: 73%; residual activity [31]: 100%; residual activity [32]: 100%; inhibition [33]: 42.3%; residual activity [34]: 100%; inhibition [35]: 3.95%; residual activity [36]: 100%; residual activity [37]: 100%; residual activity [38]: 100%
CC(C)CC(=O)N1CCc2nc(-c3ccc(Br)cc3)nc(N(C)Cc3ccccc3)c2C1 [THPP-1-NC]	100%	100%	100%	100%	97%	100%	100%	91%	100%	91%	100%	100%	100%	92%	100%	93%	3.58%	100%	99%	100%	residual activity [21]: 100%; residual activity [22]: 91%; residual activity [23]: 100%; residual activity [24]: 84%; residual activity [25]: 100%; residual activity [26]: 83%; residual activity [27]: 100%; residual activity [28]: 100%; residual activity [29]: 100%; residual activity [30]: 92%; residual activity [31]: 99%; residual activity [32]: 92%; inhibition [33]: 64.5%; residual activity [34]: 100%; inhibition [35]: 13.5%; residual activity [36]: 98%; residual activity [37]: 88%; residual activity [38]: 100%

Reference: ChEMBL document CHEMBL4507293 (2021)
